Patent publication US8318774B2, “Compounds involving mGluR5 receptor regulation and methods of making the compounds” (Gruenenthal GmbH, priority 2006, dated 2012)

molecular target: T1, mGluR5 receptor (pig) (Sus scrofa, UniProt I3LUI7); test: Inhibition of [3H]-MPEP binding in the mGluR5 receptor binding assay (pig brain homogenate); details: 5 nM [3H]-MPEP, 60 min, room temperature, read-out: IC50 mGluR5 receptor (pig) [3H]-MPEP bonding
T1 construct: 450 μg of protein from brain homogenate are incubated; from tissue; host or cells: pig brain halves without medulla, cerebellum and pons (homogenate, differential centrifugation)
Procedure: I. Method for Determining the Inhibition of the [^3H]-MPEP Binding in the mGluR5 Receptor Binding Assay
Pig brain homogenate is produced by the homogenisation (Polytron PT 3000, Kinematica AG, 10,000 rpm for 90 seconds) of pig brain halves without medulla, cerebellum and pons, in a buffer with pH 8.0 (30 mM Hepes, Sigma, order no. H3375+1 “Complete Tablet” to 100 ml, Roche Diagnostics, order no. 1836145) in the ratio 1:20 (brain weight/volume) and differential centrifuging at 900×g and 40,000×g. 450 μg of protein from brain homogenate are incubated in 250 μl incubation preparation in 96-well microtiter plates, for 60 minutes at room temperature in a buffer (as above), along with 5 nM ^3[H]-MPEP (Tocris, order no. […]
Subsequently, the preparations are filtered on unifilter plates with fibreglass filter mats (Perkin Elmer, order no. 6005177) using a Brandel Cell Harvester (Brandel, TYP Robotic 9600) and subsequently washed with buffer (as above) 3 times with 250 μl per sample in each case. The filter plates are subsequently dried for 60 min at 55° C. Subsequently 30 μl Ultima Gold™ scintillator (Packard Bioscience, order no. 6013159) are added to each well, and after 3 hours the samples are measured with the β-counter (Mikrobeta, Perkin Elmer). The non-specific binding is determined by adding 10 μM MPEP (Tocris, order no. 1212).

T1 sequence (I3LUI7 19-1212): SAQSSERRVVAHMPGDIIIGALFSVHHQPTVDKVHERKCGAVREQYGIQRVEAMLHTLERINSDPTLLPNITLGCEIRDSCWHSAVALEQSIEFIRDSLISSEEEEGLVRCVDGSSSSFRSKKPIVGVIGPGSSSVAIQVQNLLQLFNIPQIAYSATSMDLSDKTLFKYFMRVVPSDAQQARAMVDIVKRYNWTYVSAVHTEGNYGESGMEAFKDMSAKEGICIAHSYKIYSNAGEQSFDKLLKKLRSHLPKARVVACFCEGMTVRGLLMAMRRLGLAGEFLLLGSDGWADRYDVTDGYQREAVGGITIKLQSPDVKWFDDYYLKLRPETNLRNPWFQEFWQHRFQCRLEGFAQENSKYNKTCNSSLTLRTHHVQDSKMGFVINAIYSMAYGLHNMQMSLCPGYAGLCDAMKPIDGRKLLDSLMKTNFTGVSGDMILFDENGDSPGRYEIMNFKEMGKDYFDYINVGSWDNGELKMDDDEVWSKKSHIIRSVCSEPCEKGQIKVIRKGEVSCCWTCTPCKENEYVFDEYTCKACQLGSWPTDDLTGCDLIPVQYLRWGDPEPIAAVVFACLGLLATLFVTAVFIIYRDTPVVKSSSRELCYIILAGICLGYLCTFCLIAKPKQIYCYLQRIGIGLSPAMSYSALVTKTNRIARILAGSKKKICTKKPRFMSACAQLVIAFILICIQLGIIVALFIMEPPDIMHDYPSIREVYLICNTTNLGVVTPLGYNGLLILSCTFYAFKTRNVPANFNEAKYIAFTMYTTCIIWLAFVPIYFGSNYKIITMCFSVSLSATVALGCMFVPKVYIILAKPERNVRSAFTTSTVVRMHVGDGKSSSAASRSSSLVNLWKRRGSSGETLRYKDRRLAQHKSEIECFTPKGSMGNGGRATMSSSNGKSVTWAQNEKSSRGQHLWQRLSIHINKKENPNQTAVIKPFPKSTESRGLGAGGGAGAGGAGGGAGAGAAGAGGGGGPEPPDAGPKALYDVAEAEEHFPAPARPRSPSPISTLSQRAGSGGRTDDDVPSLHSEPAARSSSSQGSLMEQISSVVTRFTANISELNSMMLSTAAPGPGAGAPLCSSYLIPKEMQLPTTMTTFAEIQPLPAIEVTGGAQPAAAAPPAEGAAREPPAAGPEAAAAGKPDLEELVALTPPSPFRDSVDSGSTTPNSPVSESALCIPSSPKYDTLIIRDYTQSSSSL

SMILES	IC50 [µM]
O=C(C#Cc1ccccc1)N1CCC(Nc2nccs2)CC1 [Example 2, 4-(thiazol-2-yl-amino)-1-(3-phenyl-propiolyl)piperidine]	3.04
O=C(C#Cc1ccccc1)N1CC2CN(c3nccs3)CC2C1 (stereo not drawn) [Example 3, 3-(thiazol-2-yl)-7-(3-phenyl)-propiolyl-3,7-diaza-bicyclo[3.3.0]octane]	4.46
CN(CCCN(C)c1nccs1)C(=O)C#Cc1ccccc1 [Example 1]	0.99
CN(C(=O)C#Cc1ccccc1)C1CCN(c2nccs2)CC1 [Example 6, N-methyl-3-phenyl-N-(1-(thiazol-2-yl)piperidin-4-yl)propiolamide]	1
CN(c1nccs1)C1CCN(C(=O)C#Cc2ccccc2)CC1 [Example 4, 4-(methyl-thiazol-2-yl-amino)-1-(3-phenyl-propiolyl)piperidine]	4.22
O=C(C#Cc1ccccc1)NC1CCN(c2nccs2)CC1 [Example 5, 3-phenyl-N-(1-(thiazol-2-yl)piperidin-4-yl)propiolamide]	7.41

same assay, conditions: 1 μM test compound, 5 nM [3H]-MPEP, 60 min, room temperature, read-out: % inhibition of mGluR5 receptor (pig) [3H]-MPEP bonding at 1 μM

SMILES	inhibition at 1 µM [%]
Cc1csc(N2CCC(NC(=O)C#Cc3ccc(C)c(F)c3)CC2)n1 [Example 20, 3-(3-fluoro-4-methyl-phenyl)-N-(1-(4-methyl-thiazol-2-yl)piperidin-4-yl)-propiolamide]	39
Cc1csc(N2CCC(NC(=O)C#Cc3cccc(C(F)(F)F)c3)CC2)n1 [Example 21, N-(1-(4-methyl-thiazol-2-yl)piperidin-4-yl)-3-(3-trifluoromethyl-phenyl)-propiolamide]	32
COc1cccc(C#CC(=O)NC2CCN(c3nc(C)cs3)CC2)c1 [Example 11, N-(1-(4-methyl-thiazol-2-yl)piperidin-4-yl)-3-(3-methoxyphenyl)-propiolamide]	26
Cc1csc(N2CCC(NC(=O)C#Cc3ccccc3F)CC2)n1 [Example 16, 3-(2-fluoro-phenyl)-N-(1-(4-methyl-thiazol-2-yl)piperidin-4-yl)-propiolamide]	22
Cc1csc(N2CCC(NC(=O)C#Cc3ccccc3)CC2)n1 [Example 10, N-(1-(4-methyl-thiazol-2-yl)piperidin-4-yl)-3-phenyl-propiolamide]	36
Cc1cccc(C#CC(=O)NC2CCN(c3nc(C)cs3)CC2)c1 [Example 22, N-(1-(4-methyl-thiazol-2-yl)piperidin-4-yl)-3-(3-tolyl)-propiolamide]	79
